The values below come from PMC3664642, “A Peptide against Soluble Guanylyl Cyclase α1: A New Approach to Treating Prostate Cancer” (PLoS ONE, 2013).

Data set [1] concerns LNCaP xenograft tumors. The data set is described as follows: LNCaP mouse xenograft tumor study. It counts as in vivo. Particulars: direct intratumoral injection; three animals per treatment; P<0.0005; Fig. S8. How it is done:
[…] When tumor sizes reached 200 mm^3, 50 µL of Peptide A-8R (40 mg Peptide A-8R/Kg of animal) or Vehicle (DMSO) was directly injected into the tumors every other day. Injections were stopped after 5 times and tumors were measured every 3 days. Mice were euthanized after 3 weeks and tumors were excised. All procedures were approved by the University of Toledo Division of Lab Animal Recourses (DLAR). Protein extracts were prepared by boiling the tumor tissue in 3× SDS buffer, and evaluated by SDS-PAGE gel.
Mouse xenograft tumors derived from LNCaP cells were treated with Vehicle or Peptide A-8R, after which they were allowed to grow for an additional three weeks without treatment. Data points represent average tumor size of three animals for each treatment plus standard deviations. Note that there is a statistical difference (P<0.0005) in average tumor size for each day of tumor measurement. Arrow represents day of last injection of Vehicle or Peptide A-8R. (TIF) Click here for additional data file.

The test system of data set [2] is sGCα1-sGCβ1. The data set is described as follows: sGCα1-sGCβ1 co-immunoprecipitation, LNCaP extracts. It counts as binding. Particulars: LNCaP whole-cell extracts; Fig. S1A. How it is done:
Immunoprecipitation (IP) in LNCaP cells was performed as described previously. Whole-cell extracts from LNCaP cells were subjected to IP using Protein A/G plus Agarose (Santa Cruz). IP antibodies were against sGCα1 (Cayman Chemical), sGCβ1 (Cayman Chemical), or rabbit IgG (Santa Cruz) as control. For Biotin pulldown, 5 µg Biotin-labeled Peptide A was incubated with NeutrAvidin Agarose Resin (Thermo Scientific) for 3 hours at 4°C, after which whole-cell extract from LNCaP cells was added and incubated overnight at 4°C. Resin was washed and eluted with SDS Sample buffer, followed by SDS-PAGE gel electrophoresis.
(A) Whole-cell extracts from LNCaP cells treated with Vehicle, Peptide A-8R, or C-8R were subjected to IP using an anti-sGCα1 or anti-sGCβ1 antibody and then probed by Western blotting for sGCα1 (Upper) or sGCβ1 (Lower). Input represents amount of sGCα1 or sGCβ1 found in extracts. (B) LNCaP cells grown in the absence or presence of 1 nM R1881 were treated with Vehicle, 20 µM Peptide A-8R, 20 µM C-8R, or 8-Br-cGMP and monitored for cGMP levels using the cGMP E1A kit (Enzo Life Sciences). (C) LNCaP cells grown in the absence or presence of 8-Br-cGMP were treated with Vehicle, Peptide A-8R, or ODQ and monitored for cell density using the MTT assay. (D) LNCaP cells were treated with Vehicle or different concentrations of Peptide A-8R and C-PTIO and monitored for cell density. […]

The test system of data set [3] is prostate cancer cells. Kind of data set: Cytotoxicity against prostate cancer cells (summary). It counts as cell-based. Particulars: hormone-dependent and hormone-refractory prostate cancer cells. How it is done:
For proliferation, cells were grown in medium containing 2% FBS extracted with dextran-coated charcoal (DCC). 48 hours later, ethanol or 1 nM R1881 was added to the cells followed by peptide treatment. The MTT assay (Sigma) was used as before to determine cell number. For apoptosis, 5000 cells were seeded in 96-well plates and treated with Vehicle (DMSO), Peptide A-8R (25 µM), Etoposide (50 µM) (Sigma) at different time points. The Caspase (3/7) activity was measured using Apo-ONE Homogeneous Caspase-3/7 assay kit (Promega). PARP cleavage was also used to measure apoptosis, and is described below.

For data set [4], the target named is T1, sGCα1 (Homo sapiens, UniProt Q02108).
T1 sequence (Q02108 1-690): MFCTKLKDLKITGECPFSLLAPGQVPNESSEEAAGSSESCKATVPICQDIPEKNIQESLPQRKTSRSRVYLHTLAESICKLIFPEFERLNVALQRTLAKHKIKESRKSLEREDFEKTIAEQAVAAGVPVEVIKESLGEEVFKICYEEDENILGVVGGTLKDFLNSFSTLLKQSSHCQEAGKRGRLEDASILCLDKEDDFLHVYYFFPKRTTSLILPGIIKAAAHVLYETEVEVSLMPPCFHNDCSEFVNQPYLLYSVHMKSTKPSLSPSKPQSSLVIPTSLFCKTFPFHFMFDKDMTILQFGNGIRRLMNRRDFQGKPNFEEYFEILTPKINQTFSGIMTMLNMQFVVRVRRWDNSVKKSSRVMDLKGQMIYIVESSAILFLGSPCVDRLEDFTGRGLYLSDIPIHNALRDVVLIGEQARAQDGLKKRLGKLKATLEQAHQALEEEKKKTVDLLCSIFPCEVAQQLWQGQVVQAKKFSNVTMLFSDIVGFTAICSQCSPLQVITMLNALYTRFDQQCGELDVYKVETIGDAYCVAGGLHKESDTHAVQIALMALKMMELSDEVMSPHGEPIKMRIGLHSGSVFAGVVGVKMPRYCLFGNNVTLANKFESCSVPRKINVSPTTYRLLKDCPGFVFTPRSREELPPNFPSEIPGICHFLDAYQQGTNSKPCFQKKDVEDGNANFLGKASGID
The data set is described as follows: Binding affinity by immunoprecipitation with FITC-tagged peptide. The arrangement: endogenous sGCα1 was immunoprecipitated; endogenous in cells; host or cells: C81 cells (methods). Particulars: C81 whole-cell extract (legend: LNCaP extract), room temperature, 2 hours, IP with anti-sGCα1, fluorescence 485/521 nm, nonlinear regression. The procedure:
For binding affinity experiments, whole-cell extract from C81 cells was incubated with different concentrations of Peptide A-8R tagged with FITC at room temperature for 2 hours. IPs were performed using antibodies against sGCα1 or rabbit IgG as control. Peptide A-8R-FITC pulldown was measured by fluorescence signal at excitation and emission wavelengths of 485 and 521 nm, respectively, using a multi-well fluorescence plate reader.
Figure 2 Peptide A-8R interacts with sGCα1 in prostate cancer cells. (A) LNCaP cells were treated with 25 µM Biotin-labeled Peptide A-8R for 2 hrs and subjected to immunocytochemistry using anti-sGCα1 or anti-Biotin antibody to measure subcellular co-localization of endogenous sGCα1 and Peptide A-8R. DAPI was used to stain nuclei. (B) LNCaP cytosolic extracts were incubated with Peptide A-8R-Biotin and subjected to purification using streptavidin-agarose. This pull-down experiment was repeated with competing excess amount of unlabeled Peptide C-8R or Peptide A-8R. In both cases Western blotting was used to measure the co-purification of sGCα1. (C) LNCaP cell extract was incubated with different concentrations of Peptide A-8R-FITC and endogenous sGCα1 was immunoprecipitated. Co-purified Peptide A-8R-FITC was quantified by measuring fluorescence signal emission. […] Cell number was measured after 0–48 hrs of incubation. […]

pKd: −log10 of the molar value. “Also recorded” adds a separate entry of the source. Where no end group is shown, it is not given here.

Ac-TFCKAFPFHIIRRRRRRRR [Peptide A-8R]: the “anti-tumor activity, LNCaP xenograft” value in data set [1] is on record as “able to stop tumor growth; also recorded: strong anti-tumor activity; also recorded: blocks the growth of LNCaP prostate tumors”. The “effect on sGCα1-sGCβ1 co-IP (heterodimerization)” value in data set [2] is on record as “had no effect on either sGCα1 co-IP with sGCβ1 or sGCβ1 co-IP with sGCα1; also recorded: does not interfere with sGCα1-sGCβ1 dimerization”. In addition, the “cytotoxic activity against prostate cancer cells (summary)” value in data set [3] is listed as “strongly cytotoxic to prostate cancer cells, rapidly inducing apoptosis; also recorded: strongly cytotoxic to sGCα1-expressing prostate cancer cells, but not to sGCα1-deficient cells; also recorded: showed the strongest activity”. Besides, the pKd in data set [4] was 4.94.
